In patent US8415342B2, “Besifloxacin ophthalmic composition for the treatment or control of infection” (Bausch & Lomb Incorporated, priority 2008, dated 2013):

Legend:
Assay type in all cases: cell-based
Corynebacterium striatum = assay: MIC of clinical trial isolates, Studies 373, 433, 434; conditions: N 8
Streptococcus mitis = assay: as above; conditions: Streptococcus mitis (listed separately from S. mitis group), N 20
Protocol: PFGE testing was performed per standard procedures. […] Analysis Populations

Streptococcus salivarius = assay: as above; conditions: N 9
[1] = test system: Corynebacterium pseudodiphtheriticum; assay: as above; conditions: N 8
H. influenzae = assay: as above; conditions: Haemophilus influenzae, all phenotypes, N 344
Protocol: (§1) PFGE testing was performed per standard procedures.
(§2) The antibacterial susceptibility profile of each Visit 1 bacterial isolate was determined for besifloxacin and other antimicrobials.

CDC coryneform group G = assay: as above; conditions: N 29
Protocol: as §1, §2

Streptococcus oralis = assay: as above; conditions: N 18
Protocol: as §1, §2

S. mitis group = assay: as above; conditions: Streptococcus mitis group, N 45
Protocol: as §1, §2

S. pneumoniae = assay: as above; conditions: Streptococcus pneumoniae, all phenotypes, N 302
Protocol: as §1, §2

S. aureus = assay: as above; conditions: Staphylococcus aureus, all phenotypes, N 190
[2] = test system: Staphylococcus lugdunensis; assay: as above; conditions: N 8
Staphylococcus hominis = assay: as above; conditions: N 9
[3] = test system: baseline pathogens of bacterial conjunctivitis patients; assay: MIC of baseline clinical trial isolates, Studies 373, 433, 434 (all species)
S. epidermidis = assay: MIC of clinical trial isolates, Studies 373, 433, 434; conditions: Staphylococcus epidermidis, all phenotypes, N 111

COc1c(N2CCNC(C)C2)c(F)cc2c(=O)c(C(=O)O)cn(C3CC3)c12 (stereo not shown) [GATI]
MIC50 (Corynebacterium striatum): 0.03 µg/mL | MIC Range (Corynebacterium striatum): 0.015 to 2 µg/mL | MIC50 (Streptococcus mitis): 0.5 µg/mL | MIC90 (Streptococcus mitis): 1 µg/mL | MIC Range (Streptococcus mitis): 0.25 to 1 µg/mL | MIC50 (Streptococcus salivarius): 0.5 µg/mL | MIC Range (Streptococcus salivarius): 0.5 to 2 µg/mL | MIC50 [1]: 0.5 µg/mL | MIC Range [1]: 0.06 to 0.5 µg/mL | MIC50 (H. influenzae): 0.015 µg/mL | MIC90 (H. influenzae): 0.03 µg/mL | MIC Range (H. influenzae): ≦0.004-0.5 μg/mL | MIC50 (CDC coryneform group G): 0.06 µg/mL | MIC90 (CDC coryneform group G): 0.5 µg/mL | MIC Range (CDC coryneform group G): 0.03 to 8 µg/mL | MIC50 (Streptococcus oralis): 0.5 µg/mL | MIC90 (Streptococcus oralis): 1 µg/mL | MIC Range (Streptococcus oralis): 0.03 to 1 µg/mL | MIC50 (S. mitis group): 0.5 µg/mL | MIC90 (S. mitis group): 0.5 µg/mL | MIC Range (S. mitis group): 0.06 to 2 µg/mL | MIC50 (S. pneumoniae): 0.25 µg/mL | MIC90 (S. pneumoniae): 0.5 µg/mL | MIC Range (S. pneumoniae): 0.125 to 1 µg/mL | MIC50 (S. aureus): 0.125 µg/mL | MIC90 (S. aureus): 4 µg/mL | MIC50 [2]: 0.25 µg/mL | MIC Range [2]: 0.25 to 2 µg/mL | MIC50 (Staphylococcus hominis): 0.125 µg/mL | MIC Range (Staphylococcus hominis): 0.06 to 2 µg/mL | MIC50 ([3]; All organisms, N 1324): 0.125 µg/mL | MIC90 ([3]; All organisms, N 1324): 0.5 µg/mL | MIC50 ([3]; Gram-negative, N 438): 0.015 µg/mL | MIC90 ([3]; Gram-negative, N 438): 0.25 µg/mL | MIC Range ([3]; Gram-negative, N 438): ≦0.004-8 μg/mL | MIC50 ([3]; Gram-positive, N 886): 0.25 µg/mL | MIC90 ([3]; Gram-positive, N 886): 1 µg/mL | MIC50 (S. epidermidis): 0.125 µg/mL | MIC90 (S. epidermidis): 2 µg/mL

CC[C@H]1OC(=O)[C@H](C)[C@@H](O[C@H]2C[C@@](C)(OC)[C@@H](O)[C@H](C)O2)[C@H](C)[C@@H](O[C@@H]2O[C@H](C)C[C@H](N(C)C)[C@H]2O)[C@](C)(O)C[C@@H](C)CN(C)[C@H](C)[C@@H](O)[C@]1(C)O [AZITH]
MIC50 (Streptococcus mitis): 2 µg/mL | MIC90 (Streptococcus mitis): 4 µg/mL | MIC Range (Streptococcus mitis): 0.06 to 8 µg/mL | MIC50 (Streptococcus salivarius): 8 µg/mL | MIC50 [1]: >8 µg/mL | MIC50 (H. influenzae): 2 µg/mL | MIC90 (H. influenzae): 4 µg/mL | MIC90 (CDC coryneform group G): >8 µg/mL | MIC50 (Streptococcus oralis): 4 µg/mL | MIC90 (Streptococcus oralis): >8 µg/mL | MIC50 (S. mitis group): 2 µg/mL | MIC90 (S. mitis group): 8 µg/mL | MIC90 (S. pneumoniae): >8 µg/mL | MIC50 (S. aureus): 2 µg/mL | MIC90 (S. aureus): >8 µg/mL | MIC50 [2]: 0.5 µg/mL | MIC50 (Staphylococcus hominis): 4 µg/mL | MIC50 ([3]; All organisms, N 1324): 2 µg/mL | MIC90 ([3]; All organisms, N 1324): >8 µg/mL | MIC50 ([3]; Gram-negative, N 438): 2 µg/mL | MIC90 ([3]; Gram-negative, N 438): >8 µg/mL | MIC50 ([3]; Gram-positive, N 886): 1 µg/mL | MIC90 ([3]; Gram-positive, N 886): >8 µg/mL | MIC50 (S. epidermidis): 1 µg/mL | MIC90 (S. epidermidis): >8 µg/mL
